# Tests used:
# CRE1/AHK4 = CRE1/AHK4 (Arabidopsis thaliana, UniProt Q9C5U0); experiment: E. coli receptor activation assay; type: cell-based
# AHK3 = biological target: T1, AHK3 (Arabidopsis thaliana, UniProt Q9C5U1); experiment: E. coli receptor activation assay; type: cell-based
# T1 sequence (Q9C5U1 1-1036): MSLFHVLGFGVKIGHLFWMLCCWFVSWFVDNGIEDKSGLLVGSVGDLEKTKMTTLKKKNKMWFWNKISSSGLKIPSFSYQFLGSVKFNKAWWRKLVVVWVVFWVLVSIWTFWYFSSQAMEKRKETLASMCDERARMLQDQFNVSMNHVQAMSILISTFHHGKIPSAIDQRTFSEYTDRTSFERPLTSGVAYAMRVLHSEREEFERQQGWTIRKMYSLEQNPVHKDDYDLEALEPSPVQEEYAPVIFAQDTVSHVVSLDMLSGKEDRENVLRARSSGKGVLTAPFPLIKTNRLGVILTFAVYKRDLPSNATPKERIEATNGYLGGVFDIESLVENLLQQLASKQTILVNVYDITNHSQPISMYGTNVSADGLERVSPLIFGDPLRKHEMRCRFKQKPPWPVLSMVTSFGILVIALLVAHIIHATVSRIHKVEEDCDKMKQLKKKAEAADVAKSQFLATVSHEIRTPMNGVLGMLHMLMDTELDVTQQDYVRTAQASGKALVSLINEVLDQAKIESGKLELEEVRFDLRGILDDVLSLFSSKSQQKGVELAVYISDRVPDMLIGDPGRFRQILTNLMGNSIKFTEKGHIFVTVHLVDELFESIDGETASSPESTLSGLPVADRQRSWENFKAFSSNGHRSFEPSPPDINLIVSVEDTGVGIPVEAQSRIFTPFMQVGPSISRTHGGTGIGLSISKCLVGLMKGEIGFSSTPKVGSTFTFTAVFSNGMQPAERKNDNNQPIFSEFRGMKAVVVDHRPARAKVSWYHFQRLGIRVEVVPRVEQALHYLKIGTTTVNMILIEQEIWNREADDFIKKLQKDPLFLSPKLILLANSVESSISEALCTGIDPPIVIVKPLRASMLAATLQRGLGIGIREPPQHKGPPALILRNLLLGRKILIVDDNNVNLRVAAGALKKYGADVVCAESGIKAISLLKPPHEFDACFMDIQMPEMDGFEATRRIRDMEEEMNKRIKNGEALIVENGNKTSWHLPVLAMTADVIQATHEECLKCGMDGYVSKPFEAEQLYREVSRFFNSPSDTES
# Chain of CRE1/AHK4 (Q9C5U0 whole entry): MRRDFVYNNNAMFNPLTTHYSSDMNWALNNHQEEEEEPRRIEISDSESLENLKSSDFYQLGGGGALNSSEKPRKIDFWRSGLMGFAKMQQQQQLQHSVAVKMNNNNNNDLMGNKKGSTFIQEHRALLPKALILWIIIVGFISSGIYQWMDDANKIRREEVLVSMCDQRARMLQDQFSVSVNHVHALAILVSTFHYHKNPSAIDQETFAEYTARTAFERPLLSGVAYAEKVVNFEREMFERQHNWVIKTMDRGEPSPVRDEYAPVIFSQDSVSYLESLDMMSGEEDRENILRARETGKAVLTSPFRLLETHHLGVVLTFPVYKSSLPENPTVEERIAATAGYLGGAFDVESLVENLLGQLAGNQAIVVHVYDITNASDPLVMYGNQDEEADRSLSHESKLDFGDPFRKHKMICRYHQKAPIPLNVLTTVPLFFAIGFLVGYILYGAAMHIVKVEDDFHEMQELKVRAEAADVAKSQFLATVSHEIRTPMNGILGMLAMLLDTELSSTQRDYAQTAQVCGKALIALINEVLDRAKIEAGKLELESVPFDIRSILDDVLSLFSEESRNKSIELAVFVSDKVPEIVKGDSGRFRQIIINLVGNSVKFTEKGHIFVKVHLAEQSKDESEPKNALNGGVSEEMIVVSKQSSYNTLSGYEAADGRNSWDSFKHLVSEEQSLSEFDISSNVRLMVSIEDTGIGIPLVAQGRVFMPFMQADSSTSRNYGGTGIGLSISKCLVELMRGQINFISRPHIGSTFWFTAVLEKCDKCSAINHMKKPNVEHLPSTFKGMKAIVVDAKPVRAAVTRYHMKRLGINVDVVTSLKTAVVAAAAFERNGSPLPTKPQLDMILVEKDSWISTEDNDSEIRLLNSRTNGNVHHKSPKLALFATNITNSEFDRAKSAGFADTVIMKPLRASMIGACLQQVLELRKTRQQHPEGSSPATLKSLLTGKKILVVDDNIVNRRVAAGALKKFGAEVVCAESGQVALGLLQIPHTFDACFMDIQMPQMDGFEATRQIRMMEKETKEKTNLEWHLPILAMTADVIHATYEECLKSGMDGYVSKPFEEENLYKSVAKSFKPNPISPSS
SMILES,E. coli receptor activation assay (CRE1/AHK4),E. coli receptor activation assay (AHK3)
O=C(NCc1ccccc1)Nc1cnns1 [TD-BA],~ 50 μM,–
"C/C(=C\CNc1ncnc2[nH]cnc12)CO [tZ, trans-zeatin]",~ 1 μM,~ 10 nM
"O=C(Nc1ccccc1)Nc1cnns1 [TDZ, 1-phenyl-3-(1,2,3-thiadiazol-5-yl) urea]",~ 1 μM,~ 10 nM
